# Results published in PubChem BioAssay (NCI).
#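 1) Cells in 96-well plates. 2) Compound, 48 h, 5 concentrations. 3) Linear interpolation between surrounding doses. 4) Unreached endpoint = highest concentration. GI50 = concentration required for 50% inhibition of growth. TGI: concentration producing complete growth inhibition.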 Where a SMILES comes first, the peptide text is derived from it. [ ]: non-standard residue; d: D form. The star is where a group is joined. ξ: configuration not given here. Boc = CC(C)(C)OC(=O)*; ξV = CC(C)C(N)C(=O)O; OBn = c1ccc(CO*)cc1
# Columns and labels:
# Experiment in all cases: DTP human tumour cell line panel, 48 h
# HCT-116 colon = tested on: HCT-116 colon
# K-562 leukemia = tested on: K-562 leukemia
# HS 578T breast = tested on: HS 578T breast
# MDA-MB-435 = tested on: MDA-MB-435
# COLO 205 colon = tested on: COLO 205 colon
# BT-549 breast = tested on: BT-549 breast
# OVCAR-4 ovarian = tested on: OVCAR-4 ovarian
# EKVX NSCLC = tested on: EKVX NSCLC
# SF-295 CNS = tested on: SF-295 CNS
# OVCAR-3 ovarian = tested on: OVCAR-3 ovarian
# U251 CNS = tested on: U251 CNS
# SR leukemia = tested on: SR leukemia
# HOP-92 NSCLC = tested on: HOP-92 NSCLC
# A498 renal = tested on: A498 renal
# IGROV1 ovarian = tested on: IGROV1 ovarian
# HOP-62 NSCLC = tested on: HOP-62 NSCLC
# PC-3 prostate = tested on: PC-3 prostate
# MOLT-4 leukemia = tested on: MOLT-4 leukemia
# NCI-H226 lung = tested on: NCI-H226 lung
# KM12 colon = tested on: KM12 colon
# OVCAR-5 ovarian = tested on: OVCAR-5 ovarian
# NCI-H460 lung = tested on: NCI-H460 lung
# SK-MEL-2 melanoma = tested on: SK-MEL-2 melanoma
# UACC-257 melanoma = tested on: UACC-257 melanoma
# SK-MEL-28 melanoma = tested on: SK-MEL-28 melanoma
# A549 NSCLC = tested on: A549 NSCLC
# LOX IMVI melanoma = tested on: LOX IMVI melanoma
# HCC-2998 colon = tested on: HCC-2998 colon
# HCT-15 colon = tested on: HCT-15 colon
# NCI-H522 lung = tested on: NCI-H522 lung
# RPMI-8226 leukemia = tested on: RPMI-8226 leukemia
# SNB-75 CNS = tested on: SNB-75 CNS
# NCI-H23 lung = tested on: NCI-H23 lung
# OVCAR-8 ovarian = tested on: OVCAR-8 ovarian
# DU-145 prostate = tested on: DU-145 prostate
# UO-31 renal = tested on: UO-31 renal
# TK-10 renal = tested on: TK-10 renal
# SW-620 colon = tested on: SW-620 colon
# SK-MEL-5 melanoma = tested on: SK-MEL-5 melanoma
# NCI/ADR-RES ovarian = tested on: NCI/ADR-RES ovarian
# MDA-MB-231 breast = tested on: MDA-MB-231 breast
# 786-0 renal = tested on: 786-0 renal
# SF-539 CNS = tested on: SF-539 CNS
# SN12C renal = tested on: SN12C renal
# CCRF-CEM leukemia = tested on: CCRF-CEM leukemia
# UACC-62 melanoma = tested on: UACC-62 melanoma
# RXF 393 renal = tested on: RXF 393 renal
# HL-60(TB) leukemia = tested on: HL-60(TB) leukemia
# SK-OV-3 ovarian = tested on: SK-OV-3 ovarian
# MCF7 breast = tested on: MCF7 breast
# SNB-19 CNS = tested on: SNB-19 CNS
# SF-268 CNS = tested on: SF-268 CNS
smiles,measurement,setting,value
COC(=O)[C@@H](C)C[C@H](Cc1ccccc1)NC(=O)c1nc([C@@H](C[C@H](C(C)C)N(C)C(=O)[C@@H](NC(=O)[C@H]2CCCN2C)C(C)C)OC(C)=O)sc1C,GI50,HCT-116 colon,< 2.5 nM
same,TGI,HCT-116 colon,> 25000 nM
same,GI50,K-562 leukemia,< 2.5 nM
same,TGI,K-562 leukemia,> 25000 nM
same,GI50,HS 578T breast,< 2.5 nM
same,TGI,HS 578T breast,15800 nM
same,GI50,MDA-MB-435,< 2.5 nM
same,TGI,MDA-MB-435,< 2.5 nM
same,GI50,COLO 205 colon,2.75 nM
same,TGI,COLO 205 colon,32.6 nM
same,GI50,BT-549 breast,< 2.5 nM
same,TGI,BT-549 breast,145 nM
same,GI50,OVCAR-4 ovarian,542 nM
same,TGI,OVCAR-4 ovarian,> 25000 nM
same,GI50,EKVX NSCLC,10.6 nM
same,TGI,EKVX NSCLC,> 25000 nM
same,GI50,SF-295 CNS,< 2.5 nM
same,TGI,SF-295 CNS,> 25000 nM
same,GI50,OVCAR-3 ovarian,< 2.5 nM
same,TGI,OVCAR-3 ovarian,> 25000 nM
same,GI50,U251 CNS,3.47 nM
same,TGI,U251 CNS,> 25000 nM
same,GI50,SR leukemia,< 2.5 nM
same,TGI,SR leukemia,> 25000 nM
same,GI50,HOP-92 NSCLC,7330 nM
same,TGI,HOP-92 NSCLC,> 25000 nM
same,GI50,A498 renal,< 2.5 nM
same,TGI,A498 renal,8.08 nM
same,GI50,IGROV1 ovarian,< 2.5 nM
same,TGI,IGROV1 ovarian,> 25000 nM
same,GI50,HOP-62 NSCLC,6.18 nM
same,TGI,HOP-62 NSCLC,> 25000 nM
same,GI50,PC-3 prostate,< 2.5 nM
same,TGI,PC-3 prostate,> 25000 nM
same,GI50,MOLT-4 leukemia,2.78 nM
same,TGI,MOLT-4 leukemia,> 25000 nM
same,GI50,NCI-H226 lung,160 nM
same,TGI,NCI-H226 lung,> 25000 nM
same,GI50,KM12 colon,< 2.5 nM
same,TGI,KM12 colon,> 25000 nM
same,GI50,OVCAR-5 ovarian,10.5 nM
same,TGI,OVCAR-5 ovarian,> 25000 nM
same,GI50,NCI-H460 lung,< 2.5 nM
same,TGI,NCI-H460 lung,> 25000 nM
same,GI50,SK-MEL-2 melanoma,< 2.5 nM
same,TGI,SK-MEL-2 melanoma,> 25000 nM
same,GI50,UACC-257 melanoma,> 25000 nM
same,TGI,UACC-257 melanoma,> 25000 nM
same,GI50,SK-MEL-28 melanoma,16.5 nM
same,TGI,SK-MEL-28 melanoma,> 25000 nM
same,GI50,A549 NSCLC,20.7 nM
same,TGI,A549 NSCLC,> 25000 nM
same,GI50,LOX IMVI melanoma,8.37 nM
same,TGI,LOX IMVI melanoma,> 25000 nM
same,GI50,HCC-2998 colon,< 2.5 nM
same,TGI,HCC-2998 colon,> 25000 nM
same,GI50,HCT-15 colon,11.9 nM
same,TGI,HCT-15 colon,> 25000 nM
same,GI50,NCI-H522 lung,< 2.5 nM
same,TGI,NCI-H522 lung,< 2.5 nM
same,GI50,RPMI-8226 leukemia,< 2.5 nM
same,TGI,RPMI-8226 leukemia,> 25000 nM
same,GI50,SNB-75 CNS,< 2.5 nM
same,TGI,SNB-75 CNS,> 25000 nM
same,GI50,NCI-H23 lung,8.06 nM
same,TGI,NCI-H23 lung,> 25000 nM
same,GI50,OVCAR-8 ovarian,< 2.5 nM
same,TGI,OVCAR-8 ovarian,> 25000 nM
same,GI50,DU-145 prostate,< 2.5 nM
same,TGI,DU-145 prostate,> 25000 nM
same,GI50,UO-31 renal,15.4 nM
same,TGI,UO-31 renal,> 25000 nM
same,GI50,TK-10 renal,> 25000 nM
same,TGI,TK-10 renal,> 25000 nM
same,GI50,SW-620 colon,< 2.5 nM
same,TGI,SW-620 colon,> 25000 nM
same,GI50,SK-MEL-5 melanoma,< 2.5 nM
same,TGI,SK-MEL-5 melanoma,69.8 nM
same,GI50,NCI/ADR-RES ovarian,235 nM
same,TGI,NCI/ADR-RES ovarian,> 25000 nM
same,GI50,MDA-MB-231 breast,6.13 nM
same,TGI,MDA-MB-231 breast,4640 nM
same,GI50,786-0 renal,< 2.5 nM
same,TGI,786-0 renal,24200 nM
same,GI50,SF-539 CNS,3.39 nM
same,TGI,SF-539 CNS,201 nM
same,GI50,SN12C renal,< 2.5 nM
same,TGI,SN12C renal,> 25000 nM
same,GI50,CCRF-CEM leukemia,< 2.5 nM
same,TGI,CCRF-CEM leukemia,> 25000 nM
same,GI50,UACC-62 melanoma,< 2.5 nM
same,TGI,UACC-62 melanoma,> 25000 nM
same,GI50,RXF 393 renal,< 2.5 nM
same,TGI,RXF 393 renal,> 25000 nM
same,GI50,HL-60(TB) leukemia,< 2.5 nM
same,TGI,HL-60(TB) leukemia,< 2.5 nM
same,GI50,SK-OV-3 ovarian,< 2.5 nM
same,TGI,SK-OV-3 ovarian,> 25000 nM
same,GI50,MCF7 breast,< 2.5 nM
same,TGI,MCF7 breast,> 25000 nM
same,GI50,SNB-19 CNS,< 2.5 nM
same,TGI,SNB-19 CNS,> 25000 nM
same,GI50,SF-268 CNS,7.12 nM
same,TGI,SF-268 CNS,> 25000 nM
CC(C)C(NC(=O)CNC(=O)OC(C)(C)C)C(=O)NCC(=O)OCc1ccccc1 (stereo not drawn) (Boc-Gly-[ξV]-Gly-OBn),GI50,HCT-116 colon,27.3 µg/mL
same,TGI,HCT-116 colon,98.5 µg/mL
O=c1cc(-c2ccc3c(c2)OCCO3)oc2cc(Cl)ccc12,GI50,MOLT-4 leukemia,> 100000 nM
same,TGI,MOLT-4 leukemia,> 100000 nM
same,GI50,NCI-H522 lung,2970 nM
same,TGI,NCI-H522 lung,> 100000 nM
same,GI50,NCI-H23 lung,5670 nM
same,TGI,NCI-H23 lung,> 100000 nM
same,GI50,CCRF-CEM leukemia,> 100000 nM
same,TGI,CCRF-CEM leukemia,> 100000 nM
same,GI50,HL-60(TB) leukemia,> 100000 nM
same,TGI,HL-60(TB) leukemia,> 100000 nM
same,GI50,SNB-19 CNS,3620 nM
same,TGI,SNB-19 CNS,> 100000 nM
same,GI50,SF-268 CNS,3370 nM
same,TGI,SF-268 CNS,> 100000 nM
